Assay results reported in patent US20050175599A1, “Process for producing substance” (Kyowa Hakko Kogyo Co., Ltd., priority 2001, published 2005).

Assays:
[1] = tested on: transformant cell line 503LCA500D (derived from CHO/DG44) producing chimeric anti-CCR4 antibody; experiment: Fed-batch culture of antibody-producing cells with Q10-containing feed medium (Example 3); format: cell-based, Chinese hamster; details: for cumulative number of cells on the completion of culturing: Q10-free culture 3.94×10^7; for relative specific antibody production rate: Q10-free culture = 100%
Method: Lens culinaris agglutinin (hereinafter abbreviated as LCA) resistant cell line CHO-LCA, which is derived from Chinese hamster ovary cell line CHO/DG44, was prepared by the method described in WO 02/31140, and chimeric anti-CCR4 antibody expression vector pCANTEX 2160 (WO 01/64754) was transfected into this cell line. Then, amethotrexate (MTX)-resistant cell was selected for gene amplification to obtain transformant cell line 503LCA500D (FERM BP-8239) producing chimeric anti-CCR4 antibody. The following fed-batch culture was performed using this cell line 503LCA500D. 503LCA500D was deposited as FERM BP-8239 in International Patent Organism Depositary, National Institute of Advanced Industrial Science and Technology (AIST Tsukuba Central 6, 1-1-1 Higashi, Tsukuba, Ibaraki, Japan) as of Nov. 20, 2002.
The cells were inoculated in a 250-mL conical flask containing 50 mL of a serum-free medium. (EX-CELL 302 medium, manufactured by JRH Biosciences) to a cell density of 3×10^5 cells/mL, followed by spinner culture at 100 rpm at 37° C.
In Q10-added cultures, 0.5 mL or 1 mL of a health drink SANOMIT (manufactured by MSE Pharmazeutica GmbH) comprising Q10, water, glycerin, ethanol and lecithin was added to 20 mL of an animal-protein-material-free feed medium comprising amino acids (0.22 g/L L-alanine, 0.74 g/L L-arginine monohydrochloride, 0.22 g/LL-asparagine (anhydrous), 0.26 g/L L-aspartic acid, 0.8 g/L L-cystine dihydrochloride, 0.66 g/L L-glutamic acid, 7.34 g/L L-glutamine, 0.26 g/L glycine, 0.37 g/L L-histidine monohydrochloride dihydrate, 0.92 g/L L-isoleucine, 0.92 g/L L-leucine, 1.29 g/L L-lysine monohydrochloride, 0.26 g/L L-methionine, 0.58 g/L L-phenylalanine, 0.35 g/L L-proline, 0.37 g/L L-serine, 0.84 g/L L-threonine, 0.14 g/L L-tryptophan, 0.92 g/L L-tyrosine disodium dihydrate, and 0.83 g/LL-valine), vitamins (0.11 mg/L d-biotin, 0.035 g/L calcium D-pantothenate, 0.035 g/L choline chloride, 0.035 g/L folic acid, 0.063 g/L myo-inositol, 0.035 g/L niacin amide, 0.035 g/L pyridoxal hydrochloride, 0.0035 g/L riboflavin, 0.035 g/L thiamine hydrochloride, and 0.00011 mg/L cyanocobalamine), 0.0251 g/L ethanolamine, 0.314 g/L insulin, 8 g/L soybean hydrolysate HY-SOY (manufactured by Quest International), 0.05 g/L ethylenediaminetetraacetic acid ferric sodium salt (manufactured by Sigma-Aldrich Co.), and 2 mL cholesterol lipid concentrate (1,000×aqueous solution, manufactured by Invitrogen Corp.). The concentrations of Q10 in the feed media after addition of SANOMIT were 1,563 μmol/L and 3,125 μmol/L respectively. […]

[2] = tested on: transformant cell line 61-33γ (host YB2/0) producing a chimeric anti-GD3 antibody; experiment: Batch culture of antibody-producing cells in Q10-containing serum-free medium (Example 1); format: cell-based, rat; details: Q10-added culture, 500 μM Q10 (added as SANOMIT), batch culture 6 days
Method: The following batch culture was performed with transformant cell line 61-33γ (FERM BP-7325, WO 01/29246) which was obtained by using hybridoma cell line YB2/0 derived from a rat myeloma cell line as a host cell and produces a chimeric anti-GD3 antibody. […]
From the start to the completion of culturing, the liquid culture was sampled once a day, to assay the viable cell density (cells/mL) and the antibody concentration (μg/mL) respectively. Further, the viable cell density was measured by a dye-exclusion method using 0.4% trypan blue solution.
The cumulative number of viable cells is shown as the total sum of the viable cell density multiplied by the time as elapsed. In the present Example, the viable cell density was measured once a day, and the cumulative number of viable cells was shown as value of the additive sum of the individual viable cell densities measured each time (cells/mL×days).
Additionally, the specific antibody production rate and the relative specific antibody production rate were calculated respectively by the following equations. […]

With `COC1=C(OC)C(=O)C(C/C=C(\C)CC/C=C(\C)CC/C=C(\C)CC/C=C(\C)CC/C=C(\C)CC/C=C(\C)CC/C=C(\C)CC/C=C(\C)CC/C=C(\C)CCC=C(C)C)=C(C)C1=O` [Q10] the “cumulative number of cells on the completion of culturing” value (“cumulative number of cells” for short) ([1]; Q10-added culture 1, 121 to 393 μmol/L Q10 in the medium (SANOMIT in feed), fed-batch 13 days) was 3.64×10^7 cells/mL×days, the “relative specific antibody production rate” value ([1]; Q10-added culture 1, 121 to 393 μmol/L Q10 in the medium, fed-batch 13 days) was 128.8% and the “cumulative number of cells” value ([1]; Q10-added culture 2, 242 to 786 μmol/L Q10 in the medium (SANOMIT in feed), fed-batch 15 days) was 2.00×10^7 cells/mL×days. The “relative specific antibody production rate” value ([1]; Q10-added culture 2, 242 to 786 μmol/L Q10 in the medium, fed-batch 15 days) was 149.1%, the “cumulative number of cells” value ([2]; Q10-free culture 1.71×10^7) was 1.51×10^7 cells/mL×days and the “relative specific antibody production rate” value ([2]; Q10-free culture = 100%) was 166.3%.
